The values that follow are results of earlier work, collected in US11497761B2, “Compositions for the treatment of metastatic cancer” (priority 2019, dated 2022).

For data set [1], the system named is Ehrlich ascites tumor cells. The following applies: in vitro, Kato et al. 1971; cited from earlier work.
The next data set concerns PGC-1α. The note with it: cultured C2C12 myotubes; cited from earlier work.
The conditions of data set [2]: Kato et al. 1971; cited from earlier work.

For `CCCCCCCCCCCCCCCC(=O)O` [Hexadecanoic, Hexadecanoic acid], the anticancer activity result in data set [1] is recorded as “most active”. With `CCCCCCCCCCCC(=O)O` [lauric acid, dodecanoic acid], in the data set with PGC-1α, the “expression of PGC-1α” value was “did not alter expression”.

Regarding `CCCCCCCC/C=C\CCCCCCCC(=O)O` [octadecenoic, octadecenoic acid], the solubility entry in data set [2] was “poorly soluble”. On to `CCCCCCCCCCCCCCCCCC(=O)O` [octadeconoic, octadeconoic acid], for which, in data set [1], the anticancer activity result is reported as “most active”. lauric sucrose ester: in data set [1], the anticancer activity entry is on record as “only weak activity”.

For octadecadienoic acid, the anticancer activity entry in data set [1] is listed as “most active”.
